The text below walks through data of patent US9693556B2, “Herbicidal pyridazinone derivatives” (SYNGENTA LIMITED, priority 2011, dated 2017).

Format in all cases: in vivo
The test system of test [1] is Ipomoea hederacea (IPOHE). The experiment in a line: Post-emergence herbicidal glasshouse test on Ipomoea hederacea. The settings on record: post-emergence; 1000 g/h; evaluated after 13 days. Here is the method:
(§1) Seeds of a variety of test species are sown in standard soil in pots (Alopecurus myosuroides (ALOMY), Setaria faberi (SETFA), Echinochloa crus-galli (ECHCG), Solanum nigrum (SOLNI), Amaranthus retoflexus (AMARE), Ipomoea hederacea (IPOHE)). After cultivation for one day (pre-emergence) or after 8 days cultivation (post-emergence) under controlled conditions in a glasshouse (at 24/16° C., day/night; 14 hours light; 65% humidity), the plants are sprayed with an aqueous spray solution derived from the formulation of the technical active ingredient in acetone/water (50:50) solution containing 0.5% Tween 20 (polyoxyethelyene sorbitan monolaurate, CAS RN 9005-64-5). Compounds are applied at 1000 g/h. The test plants are then grown in a glasshouse under controlled conditions in a glasshouse (at 24/16° C., day/night; 14 hours light; 65% humidity) and watered twice daily. After 13 days for pre and post-emergence, the test is evaluated for the percentage herbicidal damage caused to the plant. The biological activities are shown in the following table on a five point scale (5=80-100% damage; 4=60-79% damage; 3=40-59% damage; 2=20-39% damage; 1=0-19% damage).

For test [2], the system named is Amaranthus retoflexus (AMARE). The experiment in a line: Post-emergence herbicidal glasshouse test on Amaranthus retoflexus. The settings on record: post-emergence; 1000 g/h; evaluated after 13 days. Here is the method: as §1
The test system of test [3] is Alopecurus myosuroides (ALOMY). Briefly: Post-emergence herbicidal glasshouse test on Alopecurus myosuroides. The conditions noted are these: post-emergence; 1000 g/h; evaluated after 13 days. Here is the method:
as §1

Test [4] relates to Amaranthus retoflexus (AMARE). Briefly: Pre-emergence herbicidal glasshouse test on Amaranthus retoflexus. The settings on record: pre-emergence; 1000 g/h; evaluated after 13 days. Here is the method: as §1
Test [5] relates to Solanum nigrum (SOLNI). The experiment in a line: Pre-emergence herbicidal glasshouse test on Solanum nigrum. The conditions noted are these: pre-emergence; 1000 g/h; evaluated after 13 days. How it is done:
as §1

For test [6], the system named is Setaria faberi (SETFA). Briefly: Post-emergence herbicidal glasshouse test on Setaria faberi. The settings on record: post-emergence; 1000 g/h; evaluated after 13 days. Here is the method: as §1
Test [7] has as its system Setaria faberi (SETFA). The experiment in a line: Pre-emergence herbicidal glasshouse test on Setaria faberi. The conditions noted are these: pre-emergence; 1000 g/h; evaluated after 13 days. How it is done:
as §1

Test [8] has as its system Alopecurus myosuroides (ALOMY). Briefly: Pre-emergence herbicidal glasshouse test on Alopecurus myosuroides. The settings on record: pre-emergence; 1000 g/h; evaluated after 13 days. How it is done:
as §1

The test system of test [9] is Echinochloa crus-galli (ECHCG). The experiment in a line: Post-emergence herbicidal glasshouse test on Echinochloa crus-galli. The conditions noted are these: post-emergence; 1000 g/h; evaluated after 13 days. Here is the method: as §1
Test [10] deals with Ipomoea hederacea (IPOHE). The experiment in a line: Pre-emergence herbicidal glasshouse test on Ipomoea hederacea. The settings on record: pre-emergence; 1000 g/h; evaluated after 13 days. Here is the method:
as §1

Test [11] deals with Echinochloa crus-galli (ECHCG). The experiment in a line: Pre-emergence herbicidal glasshouse test on Echinochloa crus-galli. The conditions noted are these: pre-emergence; 1000 g/h; evaluated after 13 days. How it is done:
as §1

For test [12], the system named is Solanum nigrum (SOLNI). The experiment in a line: Post-emergence herbicidal glasshouse test on Solanum nigrum. The conditions noted are these: post-emergence; 1000 g/h; evaluated after 13 days. Here is the method: as §1

The structures appear in SMILES notation.

For `COCn1ncc(-c2ccc(S(C)(=O)=O)c(C3=NOCC3)c2C)c(O)c1=O` [Compound 1.001], the “POST Application IPOHE herbicidal damage (five point scale)” value (shortened to “POST Application IPOHE herbicidal damage”) in test [1] is 5 (5=80-100% damage). In addition, the “POST Application AMARE herbicidal damage (five point scale)” value (“POST Application AMARE herbicidal damage” below) in test [2] was 5 (5=80-100% damage). Moreover, the “POST Application ALOMY herbicidal damage (five point scale)” value (from here on “POST Application ALOMY herbicidal damage”) in test [3] was 5 (5=80-100% damage). The “PRE Application AMARE herbicidal damage (five point scale)” value (shortened to “PRE Application AMARE herbicidal damage”) in test [4] is 5 (5=80-100% damage). Moreover, the “PRE Application SOLNI herbicidal damage (five point scale)” value (shortened to “PRE Application SOLNI herbicidal damage”) with Solanum nigrum (SOLNI) [5] was 5 (5=80-100% damage). The “POST Application SETFA herbicidal damage (five point scale)” value (shortened to “POST Application SETFA herbicidal damage”) with Setaria faberi (SETFA) [6] is recorded as 5 (5=80-100% damage). The “PRE Application SETFA herbicidal damage (five point scale)” value (“PRE Application SETFA herbicidal damage” below) in the test with Setaria faberi (SETFA) [7] is 5 (5=80-100% damage). In addition, the “PRE Application ALOMY herbicidal damage (five point scale)” value (“PRE Application ALOMY herbicidal damage” for short) in [8] was 5 (5=80-100% damage). Further, the “POST Application ECHCG herbicidal damage (five point scale)” value (from here on “POST Application ECHCG herbicidal damage”) in test [9] is 5 (5=80-100% damage). Also, the “PRE Application IPOHE herbicidal damage (five point scale)” value (shortened to “PRE Application IPOHE herbicidal damage”) in [10] is 5 (5=80-100% damage). Also, in [11], the “PRE Application ECHCG herbicidal damage (five point scale)” value (shortened to “PRE Application ECHCG herbicidal damage”) was 5 (5=80-100% damage). Besides, the “POST Application SOLNI herbicidal damage (five point scale)” value (shortened to “POST Application SOLNI herbicidal damage”) with Solanum nigrum (SOLNI) [12] is listed as 5 (5=80-100% damage).

`COc1ccc(Cn2ncc(-c3ccc(S(C)(=O)=O)c(C4=NOCC4)c3C)c(O)c2=O)cc1` [Compound 1.002]: the “POST Application IPOHE herbicidal damage” value in test [1] was 2 (2=20-39% damage). Also, the “POST Application AMARE herbicidal damage” value in test [2] was 3 (3=40-59% damage). In addition, the “POST Application ALOMY herbicidal damage” value in [3] is reported as 1 (1=0-19% damage). The “PRE Application AMARE herbicidal damage” value in test [4] is recorded as 1 (1=0-19% damage). For the same molecule, in the test on Solanum nigrum (SOLNI) [5], the “PRE Application SOLNI herbicidal damage” value was 1 (1=0-19% damage). For the same molecule, the “POST Application SETFA herbicidal damage” value in the test on Setaria faberi (SETFA) [6] is on record as 1 (1=0-19% damage). For the same molecule, in the test on Setaria faberi (SETFA) [7], the “PRE Application SETFA herbicidal damage” value is given as 1 (1=0-19% damage). Moreover, the “PRE Application ALOMY herbicidal damage” value in test [8] is 1 (1=0-19% damage). Also, the “POST Application ECHCG herbicidal damage” value in [9] is listed as 1 (1=0-19% damage). Moreover, the “PRE Application IPOHE herbicidal damage” value in [10] was 1 (1=0-19% damage). In addition, the “PRE Application ECHCG herbicidal damage” value in test [11] is 1 (1=0-19% damage). Besides, the “POST Application SOLNI herbicidal damage” value in the test with Solanum nigrum (SOLNI) [12] is recorded as 5 (5=80-100% damage).

As to `CCC(C)n1ncc(-c2ccc(S(C)(=O)=O)c(C3=NOCC3)c2C)c(O)c1=O` (stereo not drawn) [Compound 1.003], in test [1], the “POST Application IPOHE herbicidal damage” value was 5 (5=80-100% damage). In addition, in test [2], the “POST Application AMARE herbicidal damage” value is listed as 5 (5=80-100% damage). The “POST Application ALOMY herbicidal damage” value in [3] is 2 (2=20-39% damage). The “PRE Application AMARE herbicidal damage” value in [4] was 5 (5=80-100% damage). Also, in the test on Solanum nigrum (SOLNI) [5], the “PRE Application SOLNI herbicidal damage” value is reported as 4 (4=60-79% damage). The “POST Application SETFA herbicidal damage” value in the test on Setaria faberi (SETFA) [6] was 5 (5=80-100% damage). Besides, the “PRE Application SETFA herbicidal damage” value in the test with Setaria faberi (SETFA) [7] is 1 (1=0-19% damage). The “PRE Application ALOMY herbicidal damage” value in [8] was 1 (1=0-19% damage). Further, the “POST Application ECHCG herbicidal damage” value in [9] was 5 (5=80-100% damage). In addition, the “PRE Application IPOHE herbicidal damage” value in [10] is on record as 3 (3=40-59% damage). Further, the “PRE Application ECHCG herbicidal damage” value in test [11] is recorded as 5 (5=80-100% damage). For the same molecule, the “POST Application SOLNI herbicidal damage” value in the test on Solanum nigrum (SOLNI) [12] was 5 (5=80-100% damage).

Turning to `Cc1c(-c2cnn(C(F)F)c(=O)c2O)ccc(S(C)(=O)=O)c1C1=NOCC1` [Compound 1.005], the “POST Application IPOHE herbicidal damage” value in test [1] is given as 5 (5=80-100% damage). Also, the “POST Application AMARE herbicidal damage” value in test [2] is 5 (5=80-100% damage). Besides, in test [3], the “POST Application ALOMY herbicidal damage” value is on record as 4 (4=60-79% damage). Moreover, in test [4], the “PRE Application AMARE herbicidal damage” value was 5 (5=80-100% damage). For the same molecule, the “PRE Application SOLNI herbicidal damage” value in the test with Solanum nigrum (SOLNI) [5] is recorded as 3 (3=40-59% damage). Also, the “POST Application SETFA herbicidal damage” value in the test on Setaria faberi (SETFA) [6] is on record as 5 (5=80-100% damage). In the test with Setaria faberi (SETFA) [7], the “PRE Application SETFA herbicidal damage” value was 5 (5=80-100% damage). Besides, the “PRE Application ALOMY herbicidal damage” value in test [8] is listed as 1 (1=0-19% damage). Also, the “POST Application ECHCG herbicidal damage” value in test [9] is reported as 5 (5=80-100% damage). The “PRE Application IPOHE herbicidal damage” value in [10] is 1 (1=0-19% damage). Besides, the “PRE Application ECHCG herbicidal damage” value in [11] is 5 (5=80-100% damage). Moreover, in the test on Solanum nigrum (SOLNI) [12], the “POST Application SOLNI herbicidal damage” value is on record as 5 (5=80-100% damage).
